Experimental findings from US9930890B2 (priority 2010, dated 2018) are described below.

A short description of one series: physchem. As to conditions: pH 2.7.
The test system of another series is Plasmopara viticola. The experiment in a line: Plasmopara test (grapevine)/protective. The series is classed as in vivo. The note with it: grapevine young plants, protective spray, active ingredient concentration 10 ppm, evaluation 6 days after inoculation; 0% = control, 100% = no infection. A digest of the protocol: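 Young grapevine plants sprayed with emulsified formulation at the stated rate, dried, then inoculated with P. viticola spores; 1 day at approx. 20° C/100% RH, 4 days greenhouse approx. 21° C/90% RH, moistened, 1 more day in cabin. Efficacy scored 6 days post-inoculation (0% = untreated control, 100% = no infection).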

Molecules are shown by their SMILES.

`CON=Cc1ccccc1C1CC(c2csc(C3CCN(C(=O)Nc4cc(Cl)ccc4C)CC3)n2)=NO1` (centres unmarked) [I-41, N-(5-Chloro-2-methylphenyl)-4-[4-(5-{2-[(methoxyimino)methyl]phenyl}-4,5-dihydro-1,2-oxazol-3-yl)-1,3-thiazol-2-yl]piperidine-1-carboxamide] displayed a chromatographic logP in the series “physchem” of 3.95. Moreover, the Eff. % in the series on Plasmopara viticola is 81%.
